Literature values as cited in US20110171166A1, “POLYMER CONJUGATES OF O[…]” (Nektar Therapeutics, priority 2008, published 2011).

How the values were obtained:
[1] = tested on: isolated pancreatic islets, a β cell line
primary adipocytes = details: white and brown respectively
WT mice = details: long-term treatment; gold thioglucose-induced hyperphagia and high-fat diet

osteocalcin
amount sufficient to regulate the expression of the insulin genes and β cell proliferation markers [1]: picomolar amounts
amount affecting adiponectin and Pgc1α expression in white and brown adipocytes (primary adipocytes): nanomolar amounts
effect on body mass and glucose metabolism (WT mice): significantly weaken the deleterious effect on body mass and glucose metabolism
